What all share (format): cell-based
Assay [1] has as its system Stenotrophomonas maltophilia SR21970. Description: Minimum Inhibitory Concentration (MIC), agar plate incubation, CLSI method. To be noted: Stenotrophomonas maltophilia SR21970, L-1, MBL producer strain (carbapenem resistant strain), 10000 cfu/spot, Mueller-Hinton agar medium; for MIC: read-out: Minimum Inhibitory Concentration (MIC). The method, then: (§1) The antimicrobial activity in vitro of the present compound (I) was determined.
Measurement of Minimum Inhibitory Concentration (MIC, μg/ml) was conducted according to the CLSI (Clinical and Laboratory Standards Institute) and the amount of bacteria for inoculation was 10000 cfu/spot, and Mueller-Hinton agar medium was used as the test medium, and conducted using agar plate incubation.
(§2) In the tables, the unit of the values of inhibitory activity is μg/ml.

Assay [2] deals with Pseudomonas aeruginosa SR24. Description: Minimum Inhibitory Concentration (MIC), agar plate incubation, Japan Society for Chemotherapy standard method. To be noted: Pseudomonas aeruginosa SR24, no enzyme, ceftazidime sensitive strain, 1000 cfu/spot, sensitive disc medium; for MIC: read-out: Minimum Inhibitory Concentration (MIC). The procedure:
as §1
(§3) Measurement of Minimum Inhibitory Concentration (MIC, μg/ml) was conducted according to the standard method of the Japan Society for Chemotherapy and the amount of bacteria for inoculation was 1000 cfu/spot, and sensitive disc medium was used as the test medium, and conducted using agar plate incubation.
as §2

The subject of assay [3] is Klebsiella pneumoniae ATCC 700603. The description is as above. The settings on record: Klebsiella pneumoniae ATCC 700603, SHV-18, ESBL producer strain, 1000 cfu/spot, sensitive disc medium; for MIC: ATCC700603, read-out: Minimum Inhibitory Concentration (MIC). The method, then:
as §1, §3, §2

Assay [4] concerns Pseudomonas aeruginosa SR27060. The description is as above. To be noted: Pseudomonas aeruginosa SR27060, IMP-1, MBL producer strain (carbapenem resistant strain), 1000 cfu/spot, sensitive disc medium; for MIC: read-out: Minimum Inhibitory Concentration (MIC). The procedure: as §1, §3, §2
The test system of assay [5] is Acinetobacter baumannii SR24396. Described as above. The settings on record: Acinetobacter baumannii SR24396, no enzyme, 1000 cfu/spot, sensitive disc medium; for MIC: read-out: Minimum Inhibitory Concentration (MIC). The method, then: as §1, §3, §2

Converted amounts (≈) assume the structure as drawn.

The text below walks through data of patent US9145425B2, “Cephem compound having catechol group” (SHIONOGI & CO., LTD., priority 2010, dated 2015).

Turning to `CCC(ON=C(C(=O)NC1C(=O)N2C(C(=O)[O-])=C(C[N+]34CCCC3CN(C(=O)c3ccc(O)c(O)c3Cl)CC4)CSC12)c1csc(N)n1)C(=O)[O-].[Na+]` (stereo not drawn) [Compound I-37], the “Minimum Inhibitory Concentration (MIC)” value in assay [1] worked out at 1 µg/mL; in assay [2], 0.125 µg/mL; in assay [3], 0.5 µg/mL; in assay [4] it was 1 µg/mL; in assay [5], 0.125 µg/mL.

For `NC(=O)CC(ON=C(C(=O)NC1C(=O)N2C(C(=O)[O-])=C(C[N+]34CCCC3CN(C(=O)c3ccc(O)c(O)c3Cl)CC4)CSC12)c1csc(N)n1)C(=O)[O-].[Na+]` (stereo not drawn) [Compound I-38], the “Minimum Inhibitory Concentration (MIC)” value in assay [1] is 1 µg/mL; in assay [2] it was 0.125 µg/mL; in assay [3], 1 µg/mL; in assay [4] it was 2 µg/mL; in assay [5], 0.25 µg/mL.

For the compound `C[N+]1(CC2=C(C(=O)[O-])N3C(=O)C(NC(=O)C(=NOC(CC(=O)[O-])C(=O)[O-])c4csc(N)n4)C3SC2)CC2CN(C(=O)c3ccc(O)c(O)c3Cl)CC2C1.[Na+].[Na+]` (stereo not drawn) [Compound I-41], the “Minimum Inhibitory Concentration (MIC)” value in assay [1] stood at 1 µg/mL; in assay [2], 0.125 µg/mL; in assay [3], 0.5 µg/mL; in assay [4] it was 0.5 µg/mL; in assay [5] it was 0.125 µg/mL.

In the case of `CC(C)(O/N=C(\C(=O)N[C@@H]1C(=O)N2C(C(=O)[O-])=C(C[N+]3(C)CCC4(CCN(C(=O)c5ccc(O)c(O)c5Cl)CC4)CC3)CS[C@H]12)c1csc(N)n1)C(=O)[O-].[Na+]` [Compound I-42], the “Minimum Inhibitory Concentration (MIC)” value was 1 µg/mL in assay [1]; 0.063 µg/mL in assay [2]; 0.25 µg/mL in assay [3]; 1 µg/mL in assay [4]; 0.25 µg/mL in assay [5].

On to `Nc1nc(/C(=N/O[C@H](C(=O)[O-])c2ccccc2)C(=O)N[C@@H]2C(=O)N3C(C(=O)[O-])=C(C[N+]4(CCNC(=O)c5ccc(O)c(O)c5Cl)CCCC4)CS[C@H]23)ns1.[Na+]` [Compound I-51], for which the “Minimum Inhibitory Concentration (MIC)” value came to 1 µg/mL in assay [1]; 0.063 µg/mL in assay [2]; 0.25 µg/mL in assay [3]; 0.5 µg/mL in assay [4]; 0.125 µg/mL in assay [5].

As for `Nc1nc(/C(=N/O[C@H](C(=O)[O-])c2ccccc2)C(=O)N[C@@H]2C(=O)N3C(C(=O)O)=C(C[N+]45CCC[C@H]4CN(C(=O)c4ccc(O)c(O)c4Cl)CC5)CS[C@H]23)ns1` (stereo partly drawn) [Compound I-52], the MIC in assay [1] worked out at 1 µg/mL (≈ 1.23 µM); in assay [2], 0.125 µg/mL (≈ 0.154 µM); in assay [3], 0.5 µg/mL (≈ 0.615 µM); in assay [4] it was 2 µg/mL (≈ 2.46 µM); in assay [5], 0.125 µg/mL (≈ 0.154 µM).

Consider `Nc1nc(/C(=N/O[C@@H](CC(=O)[O-])C(=O)[O-])C(=O)N[C@@H]2C(=O)N3C(C(=O)[O-])=C(C[N+]4(CCNC(=O)c5ccc(O)c(O)c5Cl)CCCC4)CS[C@H]23)cs1.[Na+].[Na+]` [Compound I-59], for which the “Minimum Inhibitory Concentration (MIC)” value in assay [1] stood at 0.5 µg/mL; in assay [2], 0.063 µg/mL; in assay [3], 0.25 µg/mL; in assay [4], 0.25 µg/mL; in assay [5], 0.125 µg/mL.

Consider `C[C@@H](O/N=C(\C(=O)N[C@@H]1C(=O)N2C(C(=O)O)=C(C[N+]34CCC[C@H]3CN(C(=O)c3ccc(O)c(O)c3Cl)CC4)CS[C@H]12)c1csc(N)n1)C(=O)[O-]` (stereo partly drawn) [Compound I-63], for which the MIC in assay [1] amounted to 0.5 µg/mL (≈ 0.666 µM); in assay [2], 0.063 µg/mL (≈ 0.084 µM); in assay [3], 1 µg/mL (≈ 1.33 µM); in assay [4] it was 0.5 µg/mL (≈ 0.666 µM); in assay [5], 0.25 µg/mL (≈ 0.333 µM).

For `N#CC[C@H](O/N=C(\C(=O)N[C@@H]1C(=O)N2C(C(=O)O)=C(C[N@@+]34CC[C@@H](C3)N(C(=O)c3ccc(O)c(O)c3Cl)CC4)CS[C@H]12)c1csc(N)n1)C(=O)[O-]` [II-1], the MIC in assay [1] is 2 µg/mL (≈ 2.63 µM); in assay [2], 0.125 µg/mL (≈ 0.164 µM); in assay [3], 0.25 µg/mL (≈ 0.328 µM); in assay [4], 0.5 µg/mL (≈ 0.657 µM); in assay [5] it was 0.063 µg/mL (≈ 0.0828 µM).

Turning to `CC(C)(O/N=C(\C(=O)N[C@@H]1C(=O)N2C(C(=O)[O-])=C(C[N+]3(C)[C@@H]4CC[C@H]3C[C@@H](NC(=O)c3ccc(O)c(O)c3Cl)C4)CS[C@H]12)c1csc(N)n1)C(=O)O` (stereo partly drawn) [II-2], the MIC in assay [1] is 2 µg/mL (≈ 2.57 µM); in assay [2], 0.125 µg/mL (≈ 0.161 µM); in assay [3], 0.5 µg/mL (≈ 0.642 µM); in assay [4] it was 1 µg/mL (≈ 1.28 µM); in assay [5], 0.25 µg/mL (≈ 0.321 µM).

For `C[N+]1(CC2=C(C(=O)[O-])N3C(=O)[C@@H](NC(=O)/C(=N\O[C@@H](CC(=O)O)C(=O)O)c4csc(N)n4)[C@H]3SC2)[C@@H]2CC[C@H]1C[C@@H](NC(=O)c1ccc(O)c(O)c1Cl)C2` (stereo partly drawn) [II-3], the MIC in assay [1] was determined as 0.5 µg/mL (≈ 0.619 µM); in assay [2] it was 0.125 µg/mL (≈ 0.155 µM); in assay [3], 0.5 µg/mL (≈ 0.619 µM); in assay [4], 0.5 µg/mL (≈ 0.619 µM); in assay [5], 0.125 µg/mL (≈ 0.155 µM).

In the case of `C[N+]1(CC2=C(C(=O)[O-])N3C(=O)[C@@H](NC(=O)/C(=N\O[C@@H](CC(=O)[O-])C(=O)[O-])c4nc(N)sc4Cl)[C@H]3SC2)[C@@H]2CC[C@H]1C[C@@H](NC(=O)c1ccc(O)c(O)c1Cl)C2.[Na+].[Na+]` (stereo partly drawn) [II-5], the “Minimum Inhibitory Concentration (MIC)” value is 4 µg/mL in assay [1]; 0.125 µg/mL in assay [2]; 0.5 µg/mL in assay [3]; 0.25 µg/mL in assay [4]; 0.125 µg/mL in assay [5].

Turning to `C[N+]1(CC2=C(C(=O)[O-])N3C(=O)C(NC(=O)C(=NOC(CC(=O)[O-])C(=O)[O-])c4csc(N)n4)C3SC2)C2CCC1CN(C(=O)c1ccc(O)c(O)c1Cl)C2.[Na+].[Na+]` (stereo not drawn) [II-7], the “Minimum Inhibitory Concentration (MIC)” value in assay [1] is 0.5 µg/mL; in assay [2], 0.25 µg/mL; in assay [3], 0.5 µg/mL; in assay [4], 0.5 µg/mL; in assay [5], 0.125 µg/mL.

With `C[N+]1(CC2=C(C(=O)[O-])N3C(=O)[C@@H](NC(=O)/C(=N\O[C@@H](CC(=O)O)C(=O)O)c4csc(N)n4)[C@H]3SC2)[C@@H]2CC[C@H]1C[C@H](NC(=O)c1ccc(O)c(O)c1Cl)C2` (stereo partly drawn) [II-9], the MIC in assay [1] was 0.25 µg/mL (≈ 0.309 µM); in assay [2], 0.25 µg/mL (≈ 0.309 µM); in assay [3], 1 µg/mL (≈ 1.24 µM); in assay [4], 0.5 µg/mL (≈ 0.619 µM); in assay [5], 0.063 µg/mL (≈ 0.0779 µM).

In the case of `CC(C)(O/N=C(\C(=O)N[C@@H]1C(=O)N2C(C(=O)[O-])=C(C[N+]3(CCNC(=O)c4cc(O)c(O)c(F)c4)CCCC3)CS[C@H]12)c1csc(N)n1)C(=O)[O-].[Na+]` [II-15], the “Minimum Inhibitory Concentration (MIC)” value is 0.5 µg/mL in assay [1]; 0.063 µg/mL in assay [2]; 0.125 µg/mL in assay [3]; 0.25 µg/mL in assay [4]; 0.125 µg/mL in assay [5].

Take `Nc1nc(C(=NOC(CC(=O)[O-])C(=O)[O-])C(=O)NC2C(=O)N3C(C(=O)[O-])=C(C[N+]45CCCC4CN(C(=O)c4cc(O)c(O)c(F)c4)CC5)CSC23)cs1.[Na+].[Na+]` (stereo not drawn) [II-16]: the “Minimum Inhibitory Concentration (MIC)” value in assay [1] is 0.5 µg/mL; in assay [2], 0.125 µg/mL; in assay [3] it was 0.25 µg/mL; in assay [4], 0.5 µg/mL; in assay [5] it was 0.125 µg/mL.

On to `C[C@@H](O/N=C(\C(=O)N[C@@H]1C(=O)N2C(C(=O)O)=C(C[N@@+]34CC[C@@H](C3)N(C(=O)c3ccc(O)c(O)c3Cl)CC4)CS[C@H]12)c1csc(N)n1)C(=O)[O-]` [II-25], for which the MIC was 1 µg/mL (≈ 1.36 µM) in assay [1]; 0.125 µg/mL (≈ 0.17 µM) in assay [2]; 0.5 µg/mL (≈ 0.679 µM) in assay [3]; 1 µg/mL (≈ 1.36 µM) in assay [4]; 0.063 µg/mL (≈ 0.0856 µM) in assay [5].

As for `Nc1nc(C(=NOC(CC(=O)[O-])C(=O)[O-])C(=O)NC2C(=O)N3C(C(=O)[O-])=C(C[N+]45CCCC4CN(C(=O)c4ccc(O)c(O)c4F)CC5)CSC23)cs1.[Na+].[Na+]` (stereo not drawn) [II-28], the “Minimum Inhibitory Concentration (MIC)” value came to 0.5 µg/mL in assay [1]; 0.125 µg/mL in assay [2]; 0.25 µg/mL in assay [3]; 1 µg/mL in assay [4]; 0.125 µg/mL in assay [5].
